Experimental data published in patent US4789681A, “Cytoprotective guanidine derivatives useful in ischemic diseases” (Italfarmaco S.p.A., priority 1985, dated 1988).

Experiments:
rat (cerebral ischemia) = experiment: In vivo activity in the rat: cerebral ischemia, EEG recovery; settings: 3 mg/kg i.v., 10' before test
Description: The model described by Kramer (Kramer W., Tuynmann J. A.; Brain Research 6, 686 (1967)) has been used.
Two electrodes for the bipolar recording of EEG (occipito-cervical and cerebellar area) were applied to rats, anaesthetized with N2 O (70%) and O2 (30%), after i.v. tubocurarine treatment. Ischemia was induced by increasing the intracranial pressure in cisterna magna with artificial C.S.F. and for the duration of 1 minute. EEG was recorded 3' before ischemia, during the first 6 minutes of the recirculation and up to 30' after ischemia. The time for a complete EEG recovering was measured.
The compounds were administered i.v. 10' before test.

rat (cardiac ischemia) = experiment: In vivo activity in the rat: cardiac ischemia and reperfusion by ligation of the left coronary artery; settings: iv, 3 mg/kg, 10' to 30' before ligation
Description: It has been used a cardiac ischemia and reperfusion model, on the anaesthetized rat, by ligation of the left coronary artery as described by C. […] In said model, after the ischemic state induced by the coronary ligation, the reperfusion of the cardiac tissue follows the release of the ligation itself. In said situation tachycardias, extrasystoles ventricular fibrillations are observed, followed, in most cases, by the animal's death.
This applies in both situation: hypoxia and reperfusion.

COC(=O)[C@H](N)c1ccc(NC2=NCCN2)cc1 (single isomer, unassigned) [10a(R), Methyl (R) or (S) 2-amino-2-(4'-imidazolinyl-amino-phenilacetate]
EEG recovery time (rat (cerebral ischemia)): 62 ± 8 s

CN=C(N)NCCC[C@@H](N)C(=O)OC [2b(R), (R)-N^G -methyl-arginine methylester]
% effects (with respect to controls in the same situation) on death-rate (rat (cardiac ischemia)): 10% | % effects (with respect to controls in the same situation) on fibrillations (rat (cardiac ischemia)): 50% | % effects (with respect to controls in the same situation) on tachycardia V. (rat (cardiac ischemia)): 60%

COC(=O)[C@H](N)CCNNC(=N)N [4a(R), methyl-(R)-2-amino-4-guanidylamino-butyrrate]
EEG recovery time (rat (cerebral ischemia)): 58 ± 7 s

COC(=O)[C@H](N)[C@H]1CC[C@@H](NC(=N)N)CC1 [7a(R), Methyl (R) (1',4' cis or trans)-2-amino-2-(4'-guanidinocyclohexyl)-acetate]
EEG recovery time (rat (cerebral ischemia)): 49 ± 6 s

COC(=O)[C@@H](N)[C@H]1CC[C@@H](NC(=N)N)CC1 [7a(S), Methyl (S) (1',4' cis or trans)-2-amino-2-(4'-guanidinocyclohexyl)-acetate]
EEG recovery time (rat (cerebral ischemia)): 43 ± 5 s

COC(=O)[C@H](N)CCCNC(=N)N [D.A.M., Darginine methylester, reference compound]
EEG recovery time (rat (cerebral ischemia)): 45 ± 6 s

COC(=O)[C@@H](N)CCCNC(=N)N [L.A.M., Larginine methylester, reference compound]
EEG recovery time (rat (cerebral ischemia)): 61 ± 8 s
